Five compounds from patent publication US5591757A, “Dihydropyridine composition” (Yamanouchi Pharmaceutical Co., Ltd., priority 1984, dated 1997) can be followed below.

Where two headings read alike, the source gives them in different places.

Assay [1] relates to mean arterial blood pressure (MBP) and coronary blood flow (Cor. BF). The experiment in a line: Hemodynamic effects in anesthetized open-chest dogs (i.v.). Particulars: Canis lupus familiaris; for change in vivo at 0.1 mg/kg: iv; for change in vivo at 0.3 mg/kg: 0.3 mg/kg iv; for change in vivo at 0.3 mg/kg / change in vivo at 1 mg/kg: anesthetized dogs; for change in vivo at 1 mg/kg: 1.0 mg/kg iv. It is filed as in vivo, mongrel dogs. The method, then:
Mongrel dogs of either sex were anesthetized with pentobarbital sodium (30 mg/kg iv). The animals were artificially ventilated with room air. The chest was opened at the left 4th intercostal space. Mean arterial blood pressure (MBP), heart rate (HR), left ventricular pressure (LVP), max. dLVP/dt, mean pulmonary arterial blood pressure (MPAP), cardiac output (CO) and coronary blood flow (Cor. BF) were measured. The test compounds were injected into the femoral vein. […] BF from control values induced by intravenous injection of test compounds.

Another assay relates to rabbit thoracic aorta. Briefly: Effect on KCl-induced contraction of rabbit aorta. Particulars: Oryctolagus cuniculus, read-out: IC50, K contraction.
Another assay deals with left coronary artery. Briefly: Coronary vasodilating effects in dogs (intracoronary). The note with it: for Duration of action of coronary vasodilating effect: intracoronary (ia). It is filed as in vivo, mongrel dogs. The method, then:
Mongrel dogs of either sex were anesthetized and ventilated as previously described. A thoracotomy was performed at the 4th intercostal space. Following an intravenous injection of heprin (1000 units/kg), blood from the distal end of the cannulated carotid artery was pumped into circumflex branch of the left coronary artery using a servocontrolled peristaltic pump which maintained a constant perfusion pressure of 120 mmHg by means of a pump controller. An electromagnetic flow probe was inserted in the circit to record blood flow through the cannulated coronary artery. The test compounds were administered directly into the rubber tubing connected close to the coronary artery cannula.

The subject of the next assay is dog coronary artery. Briefly: Effect on 3,4-diaminopyridine (3,4-DAP)-induced rythmic contraction. Particulars: Canis lupus familiaris, read-out: IC50, 3,4-DAP contraction. It is filed as cell-based. The method, then: The ring segments were cannulated with two triangle stainless-steel hooks and suspended vertically in Krebs-Henseleit solution under the same condition described previously. Preparations were set up under a resting tension of 1.0 g and rhythmic contractions were induced by application of 10 mM 3,4-DAP. Test compound was cumulatively added into the medium. IC50 was estimated from dose-response curves (Table 2, column 2).

Assay [2] has as its target T1, Beta-adrenoceptor (Rattus norvegicus, UniProt P18090). Briefly: Beta-adrenoceptor blocking effect in reserpinized rats (isoproterenol chronotropy). It is filed as in vivo, male Wistar rats. Further details: The rats were anesthetized with pentobarbital sodium; from tissue; host or cells: heart in the living anesthetized male Wistar rat (reserpine-pretreated, vagotomized). The note with it: isoproterenol 0.1 μg/kg iv, cumulative iv doses, read-out: Beta-Blocking ED50 (50% blockade of positive chronotropic response to isoproterenol). On the procedure:
(§1) The rats were pretreated with reserpine (8 mg/kg ip), 18 hr before experiments. […] The heart rate was measured with a cardiotachometer triggered by the QRS of the ECG (lead II) and recorded on a polygraph. After the Control response to isoproterenol at a dose of 0.1 μg/kg iv was obtained, the test compound was injected iv in increasing doses at 20 min intervals.

Another assay addresses calcium channels. Briefly: [^3 H]-nitrendipine binding to rat brain membrane.
Assay [3] deals with T1, Beta-adrenoceptor. The experiment in a line: Intrinsic sympathomimetic activity (ISA) in reserpinized rats. It is filed as in vivo, male Wistar rats. Further details: The rats were anesthetized with pentobarbital sodium; from tissue; host or cells: heart in the living anesthetized male Wistar rat (reserpine-pretreated, vagotomized). Particulars: reserpine-pretreated rats, iv. On the procedure: as §1
In this series of experiments, intrinsic sympathomimetic activity (ISA) was also evaluated.

Assay [4] deals with T1, Beta-adrenoceptor. Briefly: cell-based. Particulars: isolated rat right atria, (-)-isoproterenol-induced positive chronotropy; read-out: KB (antagonist dissociation constant).
Source text: Beta-adrenoceptor blocking effect of test compounds was estimated by antagonism of (-)-isoproterenol-induced positive chronotropy.
The mark [5] stands for this setting: read-out: percent change of Cor. BF from control.
[6] abbreviates: read-out: percent change of MBP from control.
Setting [7] is: dog coronary artery, 10 mM 3,4-DAP.

T1 sequence (P18090 whole entry): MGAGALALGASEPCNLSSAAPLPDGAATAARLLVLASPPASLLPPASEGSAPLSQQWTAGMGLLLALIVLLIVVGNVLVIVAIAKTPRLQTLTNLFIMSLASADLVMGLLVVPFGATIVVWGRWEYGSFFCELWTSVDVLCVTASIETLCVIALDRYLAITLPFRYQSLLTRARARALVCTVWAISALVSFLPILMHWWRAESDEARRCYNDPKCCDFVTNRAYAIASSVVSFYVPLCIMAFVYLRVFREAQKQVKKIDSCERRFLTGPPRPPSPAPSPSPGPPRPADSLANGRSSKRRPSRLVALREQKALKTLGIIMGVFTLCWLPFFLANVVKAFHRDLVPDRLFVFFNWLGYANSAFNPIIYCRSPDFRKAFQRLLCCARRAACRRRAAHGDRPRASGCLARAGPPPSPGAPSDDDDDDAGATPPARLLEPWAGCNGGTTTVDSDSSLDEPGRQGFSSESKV

Regarding `COc1ccc(CCN(C)CCCC(C#N)(c2ccc(OC)c(OC)c2)C(C)C)cc1OC` (centres unmarked) [Verapamil, reference compound], the change in vivo at 0.1 mg/kg in assay [1] (setting [5]) was 95%; in assay [1] (setting [6]), -23%. The values for the IC50 in the assay with rabbit thoracic aorta and in the assay with dog coronary artery were 75 nM and 126 nM, respectively. In addition, the “ED100 pap (dose for 100% increase of Cor. BF; maximum response to papaverine 300 μg ia = 100%)” value with left coronary artery is 8 μg ia.
Regarding `COC(=O)C1=C(C)NC(C)=C(C(=O)OCCCCCCNCC(O)COc2ccccc2)C1c1cccc([N+](=O)[O-])c1.Cl` (centres unmarked) [Example 12, 6-(2-hydroxy-3-phenoxy-propylamino)hexyl methyl 2,6-dimethyl-4-(m-nitro-phenyl)-1,4-dihydropyridine-3,5-dicarboxylate hydrochloride], the change in vivo at 0.3 mg/kg in assay [1] (setting [5]) was 45%. Also, in assay [1] (setting [6]), the change in vivo at 0.3 mg/kg was -26%. In addition, the IC50 in the assay with rabbit thoracic aorta was found to be 33 nM. Also, in the assay with left coronary artery, the “ED100 pap (dose for 100% increase of Cor. BF; maximum response to papaverine 300 μg ia = 100%)” value was determined as 100 μg ia and the “Duration of action of coronary vasodilating effect” value (“Duration” for short) is given as greater than 60 min. The ED50 on Beta-adrenoceptor [2] stood at 0.6 mg/kg. In addition, on calcium channels, the IC50 stood at 12 nM; the Ki was determined as 6.15 nM; the “Slope, ^3 H-Nitrendipine binding” value amounted to 1.38. In addition, the “ISA (increase in HR)” value on Beta-adrenoceptor [3] is listed as “-”. Further, in the assay with dog coronary artery (setting [7]), the IC50 was determined as 19 nM. The Kb on Beta-adrenoceptor [4] is 63 nM.
Consider `COC(=O)C1=C(C)NC(C)=C(C(=O)OCCN(C)Cc2ccccc2)C1c1cccc([N+](=O)[O-])c1` (centres unmarked) [Nicardipine, reference compound], for which, in the assay on rabbit thoracic aorta, the IC50 came out at 1 nM. Moreover, on calcium channels, the IC50 worked out at 1.6 nM; the Ki came to 0.9 nM; the “Slope, ^3 H-Nitrendipine binding” value came out at 0.90. Moreover, the IC50 in the assay on dog coronary artery (setting [7]) is 2.1 nM.
As for `COC(=O)C1=C(C)NC(C)=C(C(=O)OCCCCCCNCC(O)COc2ccccc2)C1c1cccc(C)c1.Cl` (centres unmarked) [Example 48, 6-(2-hydroxy-3-phenoxypropylamino)hexyl methyl 2,6-dimethyl-4-(m-methylphenyl)-1,4-dihydro-pyridine-3,5-dicarboxylate hydrochloride], in assay [1] (setting [5]), the change in vivo at 0.3 mg/kg worked out at 71% and the change in vivo at 1 mg/kg was determined as 92%. In addition, in assay [1] (setting [6]), the change in vivo at 0.3 mg/kg was -20% and the change in vivo at 1 mg/kg is -43%. Further, in the assay on left coronary artery, the “ED100 pap (dose for 100% increase of Cor. BF; maximum response to papaverine 300 μg ia = 100%)” value was found to be 76 μg ia and the “Duration” value turned out to be 60 min. Further, the ED50 on Beta-adrenoceptor [2] is 0.68 mg/kg. The “ISA (increase in HR)” value on Beta-adrenoceptor [3] is listed as “-”.
Consider `COC(=O)C1=C(C)NC(C)=C(C(=O)OCCCCCCNCC(O)COc2ccccc2)C1c1ccccc1OC.Cl` (centres unmarked) [Example 47, 6-(2-hydroxy-3-phenoxypropylamino)hexyl methyl 2,6-dimethyl-4-(o-methoxyphenyl)-1,4-dihydropyridine-3,5-dicarboxylate hydrochloride], for which, in assay [1] (setting [5]), the change in vivo at 0.3 mg/kg turned out to be 30% and the change in vivo at 1 mg/kg stood at 57%. For the same compound, in assay [1] (setting [6]), the change in vivo at 0.3 mg/kg was -34% and the change in vivo at 1 mg/kg is -44%. In addition, in the assay on left coronary artery, the “ED100 pap (dose for 100% increase of Cor. BF; maximum response to papaverine 300 μg ia = 100%)” value came to 245 μg ia and the “Duration” value is on record as greater than 60 min. Further, the ED50 on Beta-adrenoceptor [2] is 0.11 mg/kg. The “ISA (increase in HR)” value at Beta-adrenoceptor [3] is “+++ (an increase in HR by above 30 beats/min)”.

In general, IC50 refers to the concentration at which inhibition is half-maximal. Usually ED50 stands for the midpoint of the dose-response relation. The Ki is the dissociation constant of the complex between target and ligand, obtained from inhibition or displacement. Broadly, the Kb is the affinity of an antagonist, worked out from how it opposes an agonist.
